Key:
hCoV-229E = test: microbe, parasite or virus in culture; type: cell-based; settings: Human coronavirus 229E
SARS-CoV-2 = test: microbe, parasite or virus in culture; type: cell-based; settings: for IC50: Severe acute respiratory syndrome coronavirus 2, SARS-CoV-2 in A549_ACE2_TMPRSS2 cells, fluorescence, mean of three biological replicates; for selectivity index (CC50/IC50): CC50 in A549_ACE2_TMPRSS2 cells over IC50
in vitro = settings: human

**Q.** What does the source list for `CO[C@@H]1C[C@H](O[C@H]2C[C@](C)(CO)[C@@H]3CC[C@@]4(C)[C@@H]5CC[C@@H]6[C@H](CC(=O)[C@]7(C)C8=COC(N[C@H](C)C(C)(C)C)=N[C@]8(C)[C@@H](O)[C@@H]8O[C@@]687)[C@@]5(C)CC[C@@H]4[C@@]3(C)[C@@H]2O)O[C@H](C)[C@H]1O` [Persicamidine D, persicamidine D]?
**A.** IC50 (hCoV-229E): 0.0052 µM; IC50 (SARS-CoV-2): 0.084 µM; selectivity index (CC50/IC50) (SARS-CoV-2): > 80

**Q.** What does the source list for `CO[C@@H]1C[C@H](O[C@H]2C[C@](C)(CO)[C@@H]3CC[C@@]4(C)[C@@H]5CC[C@@H]6[C@H](CC(=O)[C@]7(C)C8=COC(N[C@H](C)C(C)C)=N[C@]8(C)[C@@H](O)[C@@H]8O[C@@]687)[C@@]5(C)CC[C@@H]4[C@@]3(C)[C@@H]2O)O[C@H](C)[C@H]1O` [Persicamidine C, persicamidine C]?
**A.** IC50 (hCoV-229E): 0.0066 µM; IC50 (SARS-CoV-2): 0.074 µM; selectivity index (CC50/IC50) (SARS-CoV-2): > 50

**Q.** Which IC50 (hCoV-229E) does the source give for `CCC(CC)COC(=O)[C@H](C)N[P@](=O)(OC[C@H]1O[C@@](C#N)(c2ccc3c(N)ncnn23)[C@H](O)[C@@H]1O)Oc1ccccc1` [Remdesivir, reference compound] here?
**A.** The IC50 was 0.0035 µM.

**Q.** What about the viral inhibition (SARS-CoV-2; SARS-CoV-2, antiviral compound control at 1 µM) of the same compound?
**A.** Its viral inhibition is “full viral inhibition”.

**Q.** And the IC50 (SARS-CoV-2)?
**A.** Its IC50 is 0.03 µM.

**Q.** And the CC50 (in vitro)?
**A.** The CC50 was > 1 µM.

**Q.** What does the source list for `CCNC1=N[C@@]2(C)C(=CO1)[C@@]1(C)C(=O)C[C@H]3[C@@H](CC[C@@H]4[C@]3(C)CC[C@H]3[C@@]4(C)CC[C@H]4[C@@](C)(CO)C[C@H](O[C@H]5C[C@@H](OC)[C@H](O)[C@@H](C)O5)[C@@H](O)[C@@]43C)[C@@]13O[C@H]3[C@@H]2O` [Persicamidine E, persicamidine E]?
**A.** IC50 (hCoV-229E): 0.0053 µM; IC50 (SARS-CoV-2): 0.25 µM

**Q.** With `CO[C@@H]1C[C@H](O[C@H]2C[C@](C)(CO)[C@@H]3CC[C@@]4(C)[C@@H]5CC[C@@H]6[C@H](CC(=O)[C@]7(C)C8=COC(NC(C)C)=N[C@]8(C)[C@@H](O)[C@@H]8O[C@@]687)[C@@]5(C)CC[C@@H]4[C@@]3(C)[C@@H]2O)O[C@H](C)[C@H]1O` [Persicamidine B, persicamidine B] as the compound, how does the IC50 (hCoV-229E) read?
**A.** Its IC50 is 0.0036 µM.

**Q.** And the IC50 (SARS-CoV-2)?
**A.** Its IC50 is 0.23 µM.

**Q.** Which results are given for `CC[C@@H](C)NC1=N[C@@]2(C)C(=CO1)[C@@]1(C)C(=O)C[C@H]3[C@@H](CC[C@@H]4[C@]3(C)CC[C@H]3[C@@]4(C)CC[C@H]4[C@@](C)(CO)C[C@H](O[C@H]5C[C@@H](OC)[C@H](O)[C@@H](C)O5)[C@@H](O)[C@@]43C)[C@@]13O[C@H]3[C@@H]2O` [Persicamidine A, persicamidine A]?
**A.** IC50 (hCoV-229E): 0.0038 µM; IC50 (SARS-CoV-2): 0.13 µM

— publication PMC10107436, “Persicamidines—Unprecedented Sesquarterpenoids with Potent Antiviral Bioactivity against Coronaviruses” (Angewandte Chemie (International Ed. in English), 2023)
